From US6391284B1, “Nonalcoholic pharmaceutical preparations from formulations including alcohol and process for the preparation thereof” (priority 2001, dated 2002)

Test: Solubility in water
Type: physicochemical

Question: For CC1=C(/C=C/C(C)=C/C=C/C(C)=C\C(=O)O)C(C)(C)CCC1 [cis-retinoic acid], which water solubility is on record?
Answer: extremely water insoluble
